# Assay results from patent US9096547B2, “Sodium salt of 6-fluoro-3-hydroxy-2-pyrazine carboxamide” (Toyama Chemical Co., Ltd., priority 2010, dated 2015).
# How the values were obtained:
# [1] = Stability (2): appearance after irradiation by a D65 lamp; type: physicochemical; settings: irradiated (1,200,000 lx·hr) by a D65 lamp
# From the text: The preparations of Examples 1, 10, 15, 16, 22 and Comparative Example 1 were irradiated (1,200,000 lx·hr) by a D65 lamp (FLR20S-D-EDL-D65/M) and then their appearance was observed.
# [2] = Stability (1): appearance after standing at 60° C. for 1 month; type: physicochemical; settings: stand still at 60° C. for 1 month
# Description: The preparations of Examples 1, 7, 9, 10, 11, 12, 25, 28 and 29 were allowed to stand still at 60° C. for 1 month and then their appearance was observed.
smiles,measurement,setting,value
"NC(=O)c1nc(F)cnc1O.[Na] [Example 1, sodium salt of 6-fluoro-3-hydroxy-2-pyrazinecarboxamide]",appearance change,[1],appearance change was not observed
same,appearance change,[2],appearance change was not observed
